US10272080B2, “Selective dopamine D4 receptor agonists for treatment of working memory deficits” (priority 2013, dated 2019)

Tests used:
[1] = system: PNE mice; experiment: Y-maze spontaneous alternation assay in prenatal nicotine exposure (PNE) mice; assay type: in vivo, mice (C57/B6); settings: for changes in spontaneous alternations in PNE mice (Y-maze): PNE mice only, FIG. 6, N=8-9; for spontaneous alternations in the PNE mice, comparison of methylphenidate and PD 168077: FIG. 10, n=9-10 per group
Protocol: (§1) A prenatal nicotine exposure (PNE) mouse model to screen for drugs that alleviate the symptoms of ADHD and associated working memory deficits is developed.^13,14 In this model, adult female C57/B6 mice are exposed to nicotine (100 μg/ml nicotine and 2% saccharin in drinking water, pH 7.2) starting 4-6 weeks prior to mating with drug-naïve male mice, and throughout their pregnancies. Two groups of age- and bodyweight-matched female mice are used as controls. In the saccharin-only (SAC) control group, mice were exposed to saccharin alone (2% saccharin in drinking water, pH 7.2), and mice in the plain drinking water (WATER) control group were exposed to drinking water without any additives. On the day the mice littered, the litter size was standardized to contain 6-8 offspring (4 males and 4 females, whenever possible). Within 48 hours of birth offspring from the PNE, SAC and WATER groups were removed from their biological mothers and cross fostered to drug-naïve nursing dams. At the age of 90 days (postnatal day 90; P90), male offspring from each group were used in experimental analyses.
(§2) On postnatal day 90 (P90), a Y-maze assay is used to examine changes in spontaneous alternation in the PNE mouse model.
In additional experiments, saline, selective D1 receptor agonist (A-77636), selective D2/D3 receptor agonist (LY 171555), and selective D4 receptor agonist (PD 168077) are administered to the PNE and SAC mice followed with the assay of spontaneous alternations using the Y-maze.
Methylphenidate, the classic stimulant treatment for ADHD, is examined for its efficacy in alleviating working memory deficits in the PNE mice. It is disclosed that methylphenidate increases extracellular dopamine in the frontal cortex of mice.^1,14 In the example of the present invention, saline or a therapeutic equivalent dose of methylphenidate^18 is administered to PNE and SAC mice. The PNE and SAC mice administered saline or a therapeutic equivalent dose of methylphenidate are assayed for spontaneous alternations in the Y-maze.

[2] = system: drug naïve mice; experiment: Y-maze spontaneous alternation in drug naïve (WATER group) mice with pharmacological blockade of the D4 receptor; assay type: in vivo, mice (C57/B6); settings: drug naïve mice given D4 antagonist L 745087, Panel B of FIG. 7
Protocol: as §1, §2

[3] = system: SAC mice; experiment: Y-maze spontaneous alternation assay in saccharin-only (SAC) control mice; assay type: in vivo, mice (C57/B6)
Protocol: as §1
On postnatal day 90 (P90), a Y-maze assay is used to examine changes in spontaneous alternation in the PNE mouse model. […]

[4] = system: dopamine D2/D3 receptors; experiment: GTPγS binding assay, D2/D3 receptor activity in frontal cortical membrane preparations after methylphenidate treatment; assay type: biochemical; settings: PNE or SAC mice after methylphenidate treatment, FIG. 9
Protocol: D2/D3 and D4 receptor activities are also analyzed using GTPγS binding assays with frontal cortical membrane preparations from PNE and SAC mice following the methylphenidate treatment. […] Mean±SEM, n=10-11 per group.

[5] = system: dopamine D4 receptor; experiment: GTPγS binding assay, D4 receptor activity in frontal cortical membrane preparations after methylphenidate treatment; assay type: biochemical, mice; settings: FIG. 9
Protocol: Following the Y maze assay, GTPγS receptor binding assay is performed to examine the dopamine receptor signaling in mice of different groups and therefore to determine which dopamine subtypes are activated. GTPγS binding assay is used to measure agonist-induced dopamine receptor-G-protein coupling in membrane preparations obtained from specific brain regions such as the frontal cortex.^17 This assay uses pharmacological compounds that selectively activate each receptor subtype. Since compounds selective for each of the 5 dopamine receptor subtypes are not available yet, testing is limited to assaying activities of the D2/D3 and D4 receptor only. In this assay, a D2 receptor agonist LY 171555 and a selective D4R agonist PD 168077, both in 30 μM, are used to exam the activities of D2/D3 receptor and D4 receptor, respectively.
D2/D3 and D4 receptor activities are also analyzed using GTPγS binding assays with frontal cortical membrane preparations from PNE and SAC mice following the methylphenidate treatment. Increases are found in D4 agonist-induced G-protein coupling in the frontal cortices of PNE mice following the methylphenidate treatment, compared to saline treatment (Panel A, FIG. 9). […]

NC[C@@H]1O[C@H](C23CC4CC(CC(C4)C2)C3)Cc2c1ccc(O)c2O [A-77636]
changes in spontaneous alternations in PNE mice (Y-maze) [1]: neither the D1 nor the D2/D3 agonist produces significant changes

CCCN1CCC[C@@H]2Cc3n[nH]cc3C[C@H]21 [LY 171555]
changes in spontaneous alternations in PNE mice (Y-maze) [1]: neither the D1 nor the D2/D3 agonist produces significant changes

Cc1cccc(C(=O)NCN2CCN(c3ccccc3C#N)CC2)c1 [PD 168077, N-([4-(2-cyanophenyl)piperazin-1-yl]methyl)-3-methylbenzamide]
effect on L 745087 antagonist-induced decrease in spontaneous alternations [2]: abolishes the antagonist-induced decreases in spontaneous alternations in a dose-dependent manner | change in spontaneous alternations in the SAC group (Y-maze) ([3]; 20 mg/kg, FIG. 5): the change is not significant | spontaneous alternations in the PNE mice, comparison of methylphenidate and PD 168077 [1]: greater than that of MPH | working memory in prenatal nicotine exposure mouse models ([1]; PD 168077 about 10 mg per kilogram body weight): shows improvement in working memory | working memory in prenatal nicotine exposure mouse models ([1]; PD 168077 about 20 mg per kilogram body weight): shows greater improvement in working memory | difference in spontaneous alternations between the PNE group and the SAC group after administration ([1]; after PD 168077 administration, FIG. 5): no statistically significant difference | spontaneous alternations in the PNE mice (Y-maze) ([1]; dose from about 10 mg/kg to about 20 mg/kg, FIG. 5): produces improvement in spontaneous alternations in the PNE mice in a dose dependent manner

COC(=O)C(c1ccccc1)C1CCCCN1 (stereo not shown) [methylphenidate]
D2/D3 receptor coupling to G-protein in the frontal cortices [4]: does not produce significant alterations | spontaneous alternations in the SAC control group (Y-maze) ([3]; single oral 0.75 mg/kg, FIG. 8): no significant effect | spontaneous alternations in the PNE mice, comparison of methylphenidate and PD 168077 [1]: increase spontaneous alternations | spontaneous alternation in PNE mice (Y-maze), Mean±SEM ([1]; single oral 0.75 mg/kg about 30 minutes before the Y maze assay, saline about 48.0±2.2, FIG. 8): about 57.1±1.8 | difference in spontaneous alternations between methylphenidate-exposed PNE mice and saline-exposed SAC control mice ([1]; single oral 0.75 mg/kg, FIG. 8): no longer a significant difference | activity of D4 receptor in the prefrontal cortex (D4 agonist-induced G-protein coupling), Mean±SEM ([5]; MPH treated PNE mice, saline treated about 92.0±3.5): about 131.6±11.6 | D4 receptor activity in the SAC group ([5]; SAC mice receiving methylphenidate treatment): no significant change
